Results published in the supplement of paper PMC13380429.

Experiments:
Conditions in all cases: 72 h
Calu-3 [1] = assay: drug sensitivity score (DSS) for viability; higher = more toxic; extreme values may be limits of the assay
Vero E6 [2] = assay: as above
U2OS [3] = assay: as above
HepG2 [4] = assay: as above
Caco-2 [5] = assay: as above
Calu-3 [6] = assay: relative viability EC50 (midpoint between 100% and the lowest measured viability); higher = less toxic
Vero E6 [7] = assay: as above
U2OS [8] = assay: as above
HepG2 [9] = assay: as above
Caco-2 [10] = assay: as above
Calu-3 [11] = assay: cell viability relative to DMSO; higher = less toxic
Vero E6 [12] = assay: as above
U2OS [13] = assay: as above
HepG2 [14] = assay: as above
Caco-2 [15] = assay: as above

| Compound | drug sensitivity score (Calu-3 [1]) | drug sensitivity score (Vero E6 [2]) | drug sensitivity score (U2OS [3]) | drug sensitivity score (HepG2 [4]) | drug sensitivity score (Caco-2 [5]) | relative viability EC50 (Calu-3 [6]) [µM] | relative viability EC50 (Vero E6 [7]) [µM] | relative viability EC50 (U2OS [8]) [µM] | relative viability EC50 (HepG2 [9]) [µM] | relative viability EC50 (Caco-2 [10]) [µM] | cell viability (Calu-3 [11]; 1 nM) [%] | cell viability (Calu-3 [11]; 10 nM) [%] | cell viability (Calu-3 [11]; 100 nM) [%] | cell viability (Calu-3 [11]; 1000 nM) [%] | cell viability (Calu-3 [11]; 10000 nM) [%] | cell viability (Vero E6 [12]; 1 nM) [%] | cell viability (Vero E6 [12]; 10 nM) [%] | cell viability (Vero E6 [12]; 100 nM) [%] | cell viability (Vero E6 [12]; 1000 nM) [%] | cell viability (Vero E6 [12]; 10000 nM) [%] | cell viability (U2OS [13]; 1 nM) [%] | cell viability (U2OS [13]; 10 nM) [%] | cell viability (U2OS [13]; 100 nM) [%] | cell viability (U2OS [13]; 1000 nM) [%] | cell viability (U2OS [13]; 10000 nM) [%] | cell viability (HepG2 [14]; 1 nM) [%] | cell viability (HepG2 [14]; 10 nM) [%] | cell viability (HepG2 [14]; 100 nM) [%] | cell viability (HepG2 [14]; 1000 nM) [%] | cell viability (HepG2 [14]; 10000 nM) [%] | cell viability (Caco-2 [15]; 1 nM) [%] | cell viability (Caco-2 [15]; 10 nM) [%] | cell viability (Caco-2 [15]; 100 nM) [%] | cell viability (Caco-2 [15]; 1000 nM) [%] | cell viability (Caco-2 [15]; 10000 nM) [%] |
| --- | --- | --- | --- | --- | --- | --- | --- | --- | --- | --- | --- | --- | --- | --- | --- | --- | --- | --- | --- | --- | --- | --- | --- | --- | --- | --- | --- | --- | --- | --- | --- | --- | --- | --- | --- |
| Cc1c(-c2cnccn2)ssc1=S [oltipraz] | 0 | 0 | 0 | 0 | 0 | > 10 | > 10 | > 10 | > 10 | > 10 | 94 | 94.7 | 106 | 96.5 | 101 | 88.1 | 95.2 | 88.7 | 93 | 104 | 98.3 | 96.5 | 101 | 96.4 | 104 | 93.4 | 103 | 94.2 | 94.7 | 105 | 94.2 | 96 | 103 | 106 | 101 |
| Oc1ccc2c3c1O[C@H]1[C@@H](O)CC[C@@]4(O)[C@@H](C2)N(CC2CCC2)CC[C@]314 [nalbuphine] | 0 | 0 | 0 | 0 | 0 | > 10 | > 10 | > 10 | > 10 | > 10 | 103 | 95.2 | 95.9 | 117 | 105 | 99.9 | 104 | 95.3 | 102 | 96.5 | 97.7 | 96.5 | 98.2 | 92.4 | 96.9 | 107 | 99.2 | 110 | 95.9 | 91.4 | 102 | 102 | 101 | 88.4 | 98.6 |
| CNc1ccc([N+](=O)[O-])cc1-n1cnc(-c2ccc(C(F)(F)F)cc2)c1 [CU-T12-9] | 0 | 0 | 0 | 0 | 0 | > 10 | > 10 | > 10 | > 10 | > 10 | 104 | 90.9 | 93.8 | 94.9 | 94.9 | 103 | 96.4 | 100 | 101 | 102 | 103 | 103 | 96.2 | 98.2 | 100 | 108 | 104 | 93.8 | 95.4 | 91.3 | 95.4 | 105 | 96.8 | 101 | 101 |
